Results taken from patent EP0584223B1, “NOVEL IMMUNOSUPPRESSIVE COMPOUNDS” (VERTEX PHARMACEUTICALS INCORPORATED, priority 1991, dated 1992).
Where two headings read alike, the source gives them in different places.

What was measured:
[1] = system: PBLs stimulated with LB human viral-transformed B lymphoblastoid cell line; test: MLR bioassay, PBLs stimulated with LB cells; type: cell-based; details: read-out: LB
Text: (§1) Fresh peripheral blood lymphocytes (PBLs) from LeukoPak cells or whole blood from random normal blood donors (tested HIV-negative and hepatitis negative) are isolated and separated by density centrifugation over Histopaque 1077 (Sigma Chemical Co., St. Louis, MO). The murine CTLL cytotoxic T cell line and the human Jurkat T cell line are from ATCC (CTLL-2 ATCC TIB214, JURKAT CLONE E6-1 ATCC TIBl52). The human allogeneic B cell lines used for activation of the fresh PBLs are EBV-transformed lymphocytes from normal healthy adult donors with two completely different HLA haplotypes. All cell lines were routinely tested for the presence of Mycoplasma contamination using the Gibco Mycotect test kit and are Mycoplasma-free. Culture medium consists of RPMI 1640 (Gibco, Grand Island, NY) containing penicillin (50 U/ml) and streptomycin (50 µg/ml), L-glutamine 2 mM, 2 mercaptoethanol (5 x 10^-5), 10% heat-inactivated FCS and 10 mM HEPES.
(§2) All chemical stocks were dissolved in DMSO.
(§3) Antigen activated proliferation of PBLs in a primary mixed lymphocyte reaction was assessed in the presence or absence of different concentrations of tested compounds and control drugs. 5 x 10^4 fresh PBLs were stimulated with 5 x 10^3 of Mitomycin C treated-allogeneic EBV-transformed […] cells, LB and JVM, in a final volume of 200 µl per well in 96-well round-bottomed plates (Mishell, B.B. and S.M. Shiigi, Selected Methods in Cellular Immunology W.H. Freeman and Co., San Francisco, CA (1980); Nelson, P.A. et al., Transplantation 50:286 (1990)). Cultures were pulsed on day 6, harvested 24 h later and counted as in previous section.

[2] = system: PBLs stimulated with JVM human viral-transformed B lymphoblastoid cell line; test: MLR bioassay, PBLs stimulated with JVM cells; type: cell-based; details: read-out: JVM
Text: as §1, §2, §3

[3] = system: CTLL-20 murine T cell line; test: IL-2 microassay, IL-2 dependent CTLL proliferation; type: cell-based; details: Mus musculus, read-out: CTLL
Text: (§4) Fresh peripheral blood lymphocytes (PBLs) from LeukoPak cells or whole blood from random normal blood donors (tested HIV-negative and hepatitis negative) are isolated and separated by density centrifugation over Histopaque 1077 (Sigma Chemical Co., St. Louis, MO). […] The human allogeneic B cell lines used for activation of the fresh PBLs are EBV-transformed lymphocytes from normal healthy adult donors with two completely different HLA haplotypes. All cell lines were routinely tested for the presence of Mycoplasma contamination using the Gibco Mycotect test kit and are Mycoplasma-free. Culture medium consists of RPMI 1640 (Gibco, Grand Island, NY) containing penicillin (50 U/ml) and streptomycin (50 µg/ml), L-glutamine 2 mM, 2 mercaptoethanol (5 x 10^-5), 10% heat-inactivated FCS and 10 mM HEPES.

[4] = system: human peripheral blood lymphocytes (PBC); test: Mitogenesis assay, PMA plus ionomycin stimulated proliferation; type: cell-based; details: Lymphocyte, read-out: PMA
Text: as §4

[5] = system: human peripheral blood lymphocytes (PBC); test: Mitogenesis assay, OKT3 stimulated proliferation; type: cell-based; details: Lymphocyte, read-out: OKT3
Text: as §4

[6] = target: FK-506 binding protein (Homo sapiens, UniProt P62942); test: Competitive binding assay with [3H]dihydro-FK-506; details: binding to FKBP; apparent Kd, competition with [3H]dihydro-FK-506
[7] = target: FKBP (Homo sapiens, UniProt P62942); test: Inhibition of FKBP PPIase (rotamase) activity, chymotrypsin-coupled assay; type: biochemical; details: apparent Ki
Text: The inhibition of the PPIase (rotamase) enzyme activity of the FKBP (apparent "Ki" values) can also be measured according to the methods described by either Harding, M.W. et al., Nature 341:758-760 (1989) or Siekierka, J.J. et al., Nature 341:755-757 (1989). The cis-trans isomerization of the […] peptide bond in a model substrate, N-succinyl-Ala-Ala-Pro-Phe-p-nitroanilide, is monitored spectrophotometrically in a coupled assay with chymotrypsin, which releases 4-nitroanilide from the trans form of the substrate. Fischer, G. et al., Nature 337:476-478 (1989). The inhibitory effect of the addition of different concentrations of inhibitor on the extent of the reaction is determined, and analysis of the change in first order rate constant as a function of inhibitor concentration yields an estimate of the apparent Ki value.

[8] = Bioavailability in rats, blood levels by HPLC; type: in vivo; details: rat, oral gavage, 50 mg/kg single dose, .05h, whole blood
[9] = Bioavailability in rats, blood levels by HPLC; type: in vivo; details: rat, 50 mg/kg single dose, whole blood
Protocol: Bioavailability of compound (20) was determined in rats. A single dose of 50 mg/kg was administered by oral gavage or intraperitoneal (IP) injection in a vehicle consisting of olive oil-10% ethanol. Thereafter, animals were sacrificed at 0.5, 1, 2, 4, 8 and 12 hr, blood was collected into sodium heparin and immediately frozen. Whole blood was extracted with acetonitrile-methanol (90/10 vol:vol) and the concentration of compound per ml of blood was determined by HPLC. […] After oral administration, blood levels of 0.5µM, 1µM, 2µM, 12µM, and 3µM were measured at .05h, 1h, 2h, 4h, and 8h, respectively.

[10] = system: CTLL cells; test: Table 3 assay 4: CTLL proliferation + IL-2; type: cell-based; details: Mus musculus, exogenous IL-2, (3H)TdR incorporation
[11] = system: fresh human peripheral blood lymphocytes; test: Table 3 assay 1: human PBL + OKT3 proliferation; type: cell-based; details: Lymphocyte, OKT3 antibody (anti-CD3) stimulation, (3H)TdR incorporation, estimated
[12] = system: T-cell clone stimulated with antibody to the T-cell receptor (TCR) and antibody to CD2; test: Table 3 assay 2: T-cell hybridoma + TCR/CD2 proliferation; type: cell-based; details: (3H)TdR incorporation, estimated
[13] = system: T-cell hybridoma; test: Table 3 assay 3: apoptosis, activation-induced (anti-CD3) cell death; type: cell-based; details: at 1µg/ml; inhibition of activation-induced cell death, viable cell count
[14] = mixed lymphocyte reaction, LB stimulator cells, inhibition of proliferation
[15] = mixed lymphocyte reaction, JVM stimulator cells, inhibition of proliferation
[16] = inhibition of proliferation of cytotoxic T cells stimulated by IL-2
[17] = OKT3 (10^-4 dilution final), inhibition of proliferation, 3H-thymidine

Chain of FK-506 binding protein (P62942 whole entry): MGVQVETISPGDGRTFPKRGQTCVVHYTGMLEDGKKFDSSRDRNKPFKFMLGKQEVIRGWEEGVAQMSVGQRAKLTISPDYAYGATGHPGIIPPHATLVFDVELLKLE
Chain of FKBP (P62942 whole entry): as above

Row | SMILES | IC50 [1, 14] | IC50 [2, 15] | IC50 [3, 16] | IC50 ([4]; 3 h) | IC50 [5, 17] | Kd [6] | Ki [7] | further results
1 | COc1cc(C(=O)C(=O)N2CCCC[C@H]2C(=O)OC(CCCc2ccccc2)/C(C)=C/[C@H]2CC[C@H](O)CC2)cc(OC)c1OC (mixture of isomers) [Compound 8, (R and S)-(E)-1-[trans-(4-Hydroxycyclohexyl)]-2-methyl-6-phenyl-3-hex-1-enyl (S)-N-(3,4,5-trimethoxyphenylglyoxyl)pipecolate] | 10 µM | 10 µM | 4 µM | 4 µM | 5 µM | 30 nM | 27 nM | –
2 | COc1cc(C(=O)C(=O)N2CCCC[C@H]2C(=O)OC(CCCc2ccccc2)c2ccccc2)cc(OC)c1OC (stereo partly drawn) [Compound 6] | 10 µM | 9 µM | 5 µM | 8 µM | 8 µM | 40 nM | 80 nM | –
3 | COc1ccc(CCC(CCCc2ccccc2)OC(=O)[C@@H]2CCCCN2C(=O)C(=O)c2cc(OC)c(OC)c(OC)c2)cc1 (stereo partly drawn) [Compound 13] | > 10 µM | > 10 µM | 9 µM | 8 µM | 10 µM | 27 nM | 4 nM | –
4 | COc1ccc(CCCC(CCCc2ccccc2)OC(=O)[C@@H]2CCCCN2C(=O)C(=O)c2cc(OC)c(OC)c(OC)c2)cc1 (stereo partly drawn) [Compound 17] | – | – | – | – | – | 68 nM | 3 nM | IC50 [1]: 5.5 µM; IC50 [2]: 7 µM; IC50 ([3]; CTLL): > 10 µM; IC50 [4]: 4.5 µM; IC50 [5]: 2.5 µM
5 | COc1cc(C(=O)C(=O)N2CCCC[C@H]2C(=O)OC(CCCc2ccccc2)CCCc2ccccn2)cc(OC)c1OC (stereo partly drawn) [Compound 20] | 2 µM | 2.5 µM | 2 µM | 1.7 µM | 2 µM | 4 nM | 1 nM | concentration at 0.05 h [8]: 500 nM; concentration at 0.5 h ([9]; IP, 0.5h): 700 nM; concentration at 1 h ([9]; IP): 22 µM; concentration at 2 h ([9]; IP): 225 µM; concentration at 4 h ([9]; IP): 45 µM; concentration at 8 h ([9]; IP): 1000 nM; concentration at 1 h ([9]; oral gavage): 1 µM; concentration at 2 h ([9]; oral gavage): 2 µM; concentration at 4 h ([9]; oral gavage): 12 µM; concentration at 8 h ([9]; oral gavage): 3000 nM
6 | COc1cc(C(=O)C(=O)N2CCCC[C@H]2C(=O)OC(CCCc2ccccc2)CCCc2ccc(CO)cc2)cc(OC)c1OC (stereo partly drawn) [Compound 26] | 3 µM | 2.5 µM | 4 µM | 3 µM | 1 µM | 19 nM | 4 nM | –
7 | CC(C)Oc1cccc(C(=O)C(=O)N2CCCC[C@H]2C(=O)OC(CCCc2ccccc2)CCCc2cccnc2)c1 (stereo partly drawn) [Compound 29] | > 10 µM | > 10 µM | 4 µM | 10 µM | 8 µM | 3 nM | 2 nM | –
8 | COc1cc(C(=O)C(=O)N2CCCC[C@H]2C(=O)OC(CCCc2ccccc2)CCCc2cccc(CO)c2)cc(OC)c1OC (stereo partly drawn) [Compound 35] | 2.5 µM | 3 µM | 2.5 µM | 2.7 µM | 6.5 µM | 40 nM | 1 nM | –
9 | COc1cc(C(=O)C(=O)N2CCCC[C@H]2C(=O)OC(CCCc2ccccc2)CCCc2cccc(C(=O)O)c2)cc(OC)c1OC (stereo partly drawn) [Compound 36] | > 10 µM | 9 µM | > 10 µM | > 10 µM | > 10 µM | 20 nM | 4 nM | –
10 | COc1cc(C(=O)C(=O)N2CCCC[C@H]2C(=O)OC(CCCc2ccccc2)c2cccc(CO)c2)cc(OC)c1OC (stereo partly drawn) [Compound 37] | 1.2 µM | 2.2 µM | 1.2 µM | 2 µM | 5 µM | 140 nM | 7 nM | –
11 | COc1cc(C(=O)C(=O)N2CCCC[C@H]2C(=O)OC(CCCCCc2ccccc2)CCCc2ccccc2)cc(OC)c1OC (stereo partly drawn) [Compound 41] | > 10 µM | 10 µM | > 10 µM | 7 µM | > 10 µM | – | 45 nM | –
12 | C=CC[C@@H]1/C=C(\C)C[C@H](C)C[C@H](OC)[C@H]2O[C@@](O)(C(=O)C(=O)N3CCCC[C@H]3C(=O)O[C@H](/C(C)=C/[C@@H]3CC[C@@H](O)[C@H](OC)C3)[C@H](C)[C@@H](O)CC1=O)[C@H](C)C[C@@H]2OC [FK-506] | – | – | – | – | – | – | – | IC50 [10]: > 1 µg/mL; IC50 [11]: < 1 µg/mL; IC50 [12]: < 1 µg/mL
13 | CO[C@H]1C[C@@H]2CC[C@@H](C)[C@@](O)(O2)C(=O)C(=O)N2CCCC[C@H]2C(=O)O[C@H]([C@H](C)C[C@@H]2CC[C@@H](O)[C@H](OC)C2)CC(=O)[C@H](C)/C=C(\C)[C@@H](O)[C@@H](OC)C(=O)[C@H](C)C[C@H](C)/C=C/C=C/C=C/1C [Rapamycin] | – | – | – | – | – | – | – | IC50 [10]: ~0.01 µg/mL; Apoptosis [13]: Inactive at 1µg/ml; IC50 [11]: < 1 µg/mL; IC50 [12]: < 1 µg/mL
